Measured values taken from ChEMBL document CHEMBL4480432, “Expansion of a novel lead targeting M. tuberculosis DHFR as antitubercular agents” (Bioorg Med Chem, 2019).
pIC50: −log10 of the molar value. Values after ≈ are worked out from the molar mass of the structure shown.

Each compound was assayed on Mycobacterium tuberculosis (assay: microbe, parasite or virus in culture). Settings: H37Rv ATCC 27294, 168 h.
Description: Antitubercular activity against Mycobacterium tuberculosis H37Rv ATCC 27294 after 7 days by microplate alamar blue method

SMILES | MIC [µM]
COc1ccccc1-n1cc(COc2ccc3c(c2)c(C(C)=O)c(C)n3Cc2ccccc2)nn1 | 53.6 (≈ 25 µg/mL)
O=C(O)c1cn(C2CC2)c2cc(N3CCNCC3)c(F)cc2c1=O [CIPROFLOXACIN] | 4.7 (≈ 1.56 µg/mL)
CC(=O)c1c(C)n(Cc2ccccc2)c2ccc(OCc3cn(-c4ccc(C)c(C)c4)nn3)cc12 | 53.8 (≈ 25 µg/mL)
CCOC(=O)c1c(C)n(Cc2ccccc2)c2ccc(OCc3cn(-c4ccc(F)cc4)nn3)cc12 | 51.6 (≈ 25 µg/mL)
CCOC(=O)c1c(C)n(Cc2ccccc2)c2ccc(OCc3cn(-c4ccc([N+](=O)[O-])cc4)nn3)cc12 | 48.9 (≈ 25 µg/mL)
CN(Cc1cnc2nc(N)nc(N)c2n1)c1ccc(C(=O)N[C@@H](CCC(=O)O)C(=O)O)cc1 [METHOTREXATE] | 3.38 (≈ 1.54 µg/mL)
CO[C@H]1/C=C/O[C@@]2(C)Oc3c(C)c(O)c4c(O)c(c(/C=N/N5CCN(C)CC5)c(O)c4c3C2=O)NC(=O)/C(C)=C\C=C\[C@H](C)[C@H](O)[C@@H](C)[C@@H](O)[C@@H](C)[C@H](OC(C)=O)[C@@H]1C [RIFAMPIN] | 0.25 (≈ 0.206 µg/mL)
CCOC(=O)c1c(C)n(Cc2ccccc2)c2ccc(OCc3cn(-c4ccc(C#N)cc4)nn3)cc12 | 12.7 (≈ 6.25 µg/mL)
CCOC(=O)c1c(C)n(Cc2ccccc2)c2ccc(OCc3cn(-c4ccc(CC)cc4)nn3)cc12 | 50.6 (≈ 25 µg/mL)
CCOC(=O)c1c(C)n(Cc2ccccc2)c2ccc(OCc3cn(-c4ccc(C(F)(F)F)cc4)nn3)cc12 | 46.8 (≈ 25 µg/mL)
CCOC(=O)c1c(C)n(Cc2ccccc2)c2ccc(OCc3cn(-c4cccc(Cl)c4)nn3)cc12 | 50.2 (≈ 25.1 µg/mL)
CC(=O)c1c(C)n(Cc2ccccc2)c2ccc(OCc3cn(-c4ccc(C(F)(F)F)cc4)nn3)cc12 | 49.5 (≈ 25 µg/mL)
CC[C@@H](CO)NCCN[C@@H](CC)CO [ETHAMBUTOL] | 16.5 (≈ 3.37 µg/mL)
CCOC(=O)c1c(C)n(Cc2ccccc2)c2ccc(OCc3cn(-c4ccc(C)cc4)nn3)cc12 | 26 (≈ 12.5 µg/mL)
NNC(=O)c1ccncc1 [ISONIAZID] | 0.73 (≈ 0.1 µg/mL)
CC(=O)c1c(C)n(Cc2ccccc2)c2ccc(OCc3cn(-c4ccc(C)cc4)nn3)cc12 | 55.5 (≈ 25 µg/mL)
CCOC(=O)c1c(C)n(Cc2ccccc2)c2ccc(OCc3cn(-c4ccccc4OC)nn3)cc12 | 50.4 (≈ 25 µg/mL)
CCc1ccc(-n2cc(COc3ccc4c(c3)c(C(C)=O)c(C)n4Cc3ccccc3)nn2)cc1 | 26.9 (≈ 12.5 µg/mL)
CC(=O)c1c(C)n(Cc2ccccc2)c2ccc(OCc3cn(-c4ccc([N+](=O)[O-])cc4)nn3)cc12 | 12.9 (≈ 6.21 µg/mL)
CC(=O)c1c(C)n(Cc2ccccc2)c2ccc(OCc3cn(-c4ccc(C#N)cc4)nn3)cc12 | 54.2 (≈ 25 µg/mL)
CC(=O)c1c(C)n(Cc2ccccc2)c2ccc(OCc3cn(-c4cccc(Cl)c4)nn3)cc12 | 6.64 (≈ 3.13 µg/mL)
CC(=O)c1c(C)n(Cc2ccccc2)c2ccc(OCc3cn(-c4ccc(Cl)cc4)nn3)cc12 | 53.1 (≈ 25 µg/mL)
CCOC(=O)c1c(C)n(Cc2ccccc2)c2ccc(OCc3cn(-c4ccc(Br)cc4)nn3)cc12 | 45.9 (≈ 25.1 µg/mL)
CC(=O)c1c(C)n(Cc2ccccc2)c2ccc(OCc3cn(-c4ccc(F)cc4)nn3)cc12 | 55 (≈ 25 µg/mL)

These compounds were tested against T1, Dihydrofolate reductase (Mycobacterium tuberculosis, UniProt P9WNX1) (assay: Inhibition of Mycobacterium tuberculosis H37Rv DHFR expressed in Escherichia coli BL21(DE3) assessed as reduction in consumption of NADPH using DHF as substrate preincubated for 1 min followed by DHF addition and measured for 2 mins by spectrophotometric method). Settings: not given.
T1 sequence (P9WNX1 whole entry): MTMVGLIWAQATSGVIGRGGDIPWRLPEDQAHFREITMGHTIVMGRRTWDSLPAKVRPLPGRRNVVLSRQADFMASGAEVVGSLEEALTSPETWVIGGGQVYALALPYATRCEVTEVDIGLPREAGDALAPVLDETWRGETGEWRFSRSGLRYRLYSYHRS

SMILES | pIC50
CC(=O)c1c(C)n(Cc2ccccc2)c2ccc(OCCCC(=O)O)cc12 | 4.60
CC(=O)c1c(C)n(Cc2ccccc2)c2ccc(OCc3cn(-c4cccc(Cl)c4)nn3)cc12 | 4.37

The compounds below were run on DHFR (human versus Mycobacterium tuberculosis H37Rv) (assay: Selectivity index, ratio of IC50 for human DHFR to IC50 for Mycobacterium tuberculosis H37Rv DHFR expressed in Escherichia coli BL21(DE3)). Settings: human and Mycobacterium tuberculosis H37Rv; read-out: Ratio IC50.
Assay type: toxicity

SMILES | selectivity ratio
CC(=O)c1c(C)n(Cc2ccccc2)c2ccc(OCc3cn(-c4cccc(Cl)c4)nn3)cc12 | 4.17

What follows are compounds tested against T2, Dihydrofolate reductase (Homo sapiens, UniProt P00374) (assay: Inhibition of human DHFR assessed as reduction in consumption of NADPH using DHF as substrate preincubated for 1 min followed by DHF addition and measured for 2 mins by spectrophotometric method). Settings: not given.
T2 sequence (P00374 whole entry): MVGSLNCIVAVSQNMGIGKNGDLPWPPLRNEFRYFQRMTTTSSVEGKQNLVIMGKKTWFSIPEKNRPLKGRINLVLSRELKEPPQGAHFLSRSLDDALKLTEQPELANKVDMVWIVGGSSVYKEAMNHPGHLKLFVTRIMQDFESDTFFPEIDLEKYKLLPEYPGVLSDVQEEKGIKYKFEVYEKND

SMILES | pIC50
CC(=O)c1c(C)n(Cc2ccccc2)c2ccc(OCc3cn(-c4cccc(Cl)c4)nn3)cc12 | 3.74
